The assay has as its system Avena fatua (AVEFA). Description: Glasshouse adjuvancy test for pinoxaden on AVEFA. The class given is in vivo. Particulars: total surfactant 0.2% w/v, 21 days. On the procedure:
The efficacy of 1:1 blends of oleyl 20EO with oleyl 20EO with either n-hexanoyl, n-octanoyl or 2-ethyl hexanoyl ester caps as adjuvants for the herbicide pinoxaden was tested in a glasshouse against two weed species, sown into standard soil in pots and cultivated under controlled conditions in a glasshouse (20/16° C. day/night; 16 hours light; 65% humidity). Pinoxaden was added to the spray tank as a standard EC (emulsifiable concentrate) formulation. The plants were sprayed with pinoxaden at rates of 7.5 or 15 grams of pesticide per hectare using a laboratory track sprayer which delivered the aqueous spray composition at a rate of 200 litres per hectare, using a flat fan nozzle (Teejet 11002VS) at 2 bar. The spray solutions also contained the oleyl 20EO alone or in the 1:1 blends with the capped surfactants. The adjuvants were added to the spray solution at a total surfactant rate of 0.2% w/v. All spray solutions also contained 10% w/w of iso-propanol. The weed species and their BBCH growth stage at spraying were Avena fatua (AVEFA; growth stage 13) and Setaria viridis (SETVI; growth stage 13). Each spray test was replicated three times. The test plants were then grown in a glasshouse under controlled conditions (20/16° C. day/night; 16 hours light; 65% humidity) and watered twice a day. The efficacy of the herbicide was assessed visually and expressed as a percentage of the leaf area killed. Samples were assessed at a time period of 21 days following application.
Dodecyl 23EO and hexadecyl 20EO were capped with an n-hexyl ether cap. The efficacy of 1:1 blends of these with their uncapped counterparts were tested as adjuvants for the herbicide pinoxaden was tested in a glasshouse against two weed species, sown into standard soil in pots and cultivated under controlled conditions in a glasshouse (20/16° C. day/night; 16 hours light; 65% humidity). Pinoxaden was added to the spray tank as a standard EC (emulsifiable concentrate) formulation. The plants were sprayed with pinoxaden at a.i. rates of 7.5 or 15 grams per hectare using a laboratory track sprayer which delivered the aqueous spray composition at a rate of 200 litres per hectare, using a flat fan nozzle (Teejet 11002VS) at 2 bar. The spray solutions tested included the capped and uncapped alone or in the 1:1 blends with the capped surfactants. The adjuvants were added to the spray solution at a total surfactant rate of 0.2% w/v. All spray solutions also contained 10% w/w of iso-propanol. The weed species and their BBCH growth stage at spraying was Avena fatua (AVEFA; growth stage 12). Each spray test was replicated three times. The test plants were then grown in a glasshouse under controlled conditions (20/16° C. day/night; 16 hours light; 65% humidity) and watered twice a day. The efficacy of the herbicide was assessed visually and expressed as a percentage of the leaf area killed. Samples were assessed at a time period of 21 days following application.
Oleyl 20EO was capped with -butyl, n-pentyl and n-benzyl caps. The efficacy of 1:1 blends of these with their uncapped counterparts were tested as adjuvants for the herbicide pinoxaden was tested in a glasshouse against two weed species, sown into standard soil in pots and cultivated under controlled conditions in a glasshouse (20/16° C. day/night; 16 hours light; 65% humidity). Pinoxaden was added to the spray tank as a standard EC (emulsifiable concentrate) formulation. The plants were sprayed with pinoxaden at a.i. rates of 7.5 or 15 grams per hectare using a laboratory track sprayer which delivered the aqueous spray composition at a rate of 200 litres per hectare, using a flat fan nozzle (Teejet 11002VS) at 2 bar. The spray solutions tested included the capped and uncapped alone or in the 1:1 blends with the capped surfactants. The adjuvants were added to the spray solution at a total surfactant rate of 0.2% w/v. All spray solutions also contained 10% w/w of iso-propanol.

The source of these data is patent US11779014B2, “Adjuvants” (SYNGENTA PARTICIPATIONS AG, priority 2017, dated 2023).

The compound `CCCCCCCC/C=C\CCCCCCCCOCCOCCOCCOCCOCCOCCOCCOCCOCCOCCOCCOCCOCCOCCOCCOCCOCCOCCOCCOCCO` [Oleyl 20EO, oleyl 20 ethoxylate] had a Mean control (pinoxaden 7.5 g ai/ha, Example 4) of 65.0%; a Mean control (pinoxaden 15 g ai/ha, Example 4) of 86.7%; a Mean control (pinoxaden 15 g ai/ha, Example 9, growth stage 12) of 92.7%.
